Laboratory results taken from PMC7385413 (Frontiers in Neuroscience, 2020).
Several values for one entry are separate records, joined by “and”; a condition that tells them apart may be missing. Identical values can stand only once. Like-named read-outs stand apart in the source and are kept apart here.

Columns and labels:
[1] = tested on: B6-SJL mice; assay: Cumulative dose-response warm water tail-withdrawal assay; type: in vivo; details: cumulative s.c. doses; for ED50: Mus musculus, sc, 0.5 h, 50°C, latency 30 min post-injection
Procedure: (§1) On the 2 days prior to the test day, mice were restrained in transparent plastic tube restrainers (internal diameter 24 mm) for 5 min daily, to reduce restraint stress. Tail-withdrawal latencies were measured by immersing one-third of the distal portion of the tail in a warm water bath (50 ± 0.5°C) and the time to show the withdrawal response recorded. A maximum tail immersion cut-off of 10 s was used to avoid tissue damage and allow for repeated exposure to the thermal stimulus. On the day of the experiment, the baseline latency for each animal was measured by averaging three predrug tail-withdrawal latencies, with successive measurements taken at least 5 min apart. Following the experimental procedure, the percentage maximum possible effect (%MPE) was calculated for each animal at each time point by using the following formula:
(§2) %MPE=(testlatency-baselinelatency/10-baselinelatency)× 100
The cumulative dose-response effects were evaluated using a within animal design, as previously described ([Bohn et al., 2000]; [Paton et al., 2017]; [Sherwood et al., 2017]). Briefly, mice were given s.c. injections at increasing concentrations to create cumulative doses in a volume of 5 μL/g of weight into the scruff of the neck, the left flank and the right flank in sequence to avoid continuous injections into the same area. At 30 min post-injection, the tail-withdrawal latency was measured and the next cumulative dose administered immediately after. […] Non-linear regression analysis was used to determine potency [median effective dose (ED50)] and efficacy calculated by normalizing data to the prototype KOPr agonist U50,488 [maximum dose achieved (Emax)].

[2] = tested on: B6-SJL mice; assay: Warm water tail-withdrawal assay, time course (duration of action); type: in vivo; details: 50°C, vs vehicle
Procedure: as §1, §2
To measure the duration of action, the tail-withdrawal latencies were measured over a time-course as previously described ([Simonson et al., 2015]; [Paton et al., 2017]). Following the baseline latency measurements, mice were given an i.p. injection of either KOPr agonist or vehicle and the latency to tail-withdrawal behavior determined at 5, 10, 15, 30, 45, 60, 90, and 120 min for each animal in a repeated measures design.

[3] = tested on: B6-SJL mice; assay: Intraplantar 2% formaldehyde model, i.p. treatment; type: in vivo; details: for Time of significant reduction of pain-related behavioral score: vs vehicle/formaldehyde; for Area under the curve, phase I and phase II pain-related behavior: phase I 0–15 min, phase II 20–60 min
Procedure: The Intraplantar 2% formaldehyde model was carried out as previously described ([Paton et al., 2017]; [Sherwood et al., 2017]). The custom-made chamber (27.5 × 18.5 cm) sat on a glass surface with a 45° angle mirror underneath to capture the behaviors via a video camera. The mice were habituated to the test enclosure for 15 min before testing. The mice were given KOPr agonist or vehicle treatment via i.p. injection 5 min prior to the administration of 20 μL of formaldehyde (2% in PBS) or PBS alone via intraplantar (i.pl.) injection. The animals were recorded for 60 min. The methods of [Dubuisson and Dennis (1977)] were used to assess the pain-like behavior using a weight-bearing score. […] Scores were assessed every 5 s and averaged for every 5 min time period. For the area under the curve analysis, the two phases were separated out as follows: 0–15 min phase one nociceptive pain-related behavior; and 20–60 min phase two inflammatory pain-related behavior.

[4] = tested on: Sprague–Dawley rats; parameters: method as in Riley et al., 2014; Mathew, 2019; details: 16-Bromo SalA 1 mg/kg; 16-Ethynyl SalA 0.3–2 mg/kg; ref Riley et al., 2014; Mathew, 2019; cited from earlier work
[5] = tested on: B6-SJL mice; type: in vivo
[6] = tested on: hKOPr; assay: Bias factor, G-protein (cAMP) vs β-arrestin2, U50,488 as reference ligand; details: for Signaling bias in words: bias calculation relative to U50,488; for Bias factor: relative to U50,488, 1 balanced, >1 G-protein biased, <1 β-arrestin2 biased
[7] = tested on: C57Bl/6J mice
[8] = tested on: C57Bl/6J mice; remark: listed apart in the source
[9] = tested on: B6-SJL mice
[10] = tested on: rats; parameters: method as in Riley et al., 2014; details: ref Riley et al., 2014; cited from earlier work
[11] = target: T1, hKOPr (Homo sapiens, UniProt P41145); assay: Inhibition of forskolin-induced cAMP accumulation (HitHunter) in CHO cells expressing hKOPr; type: cell-based; parameters: host or cells: CHO
[12] = tested on: hKOPr; details: read-out: EC50 [35S]GTP-γ-S; cited from earlier work
[13] = tested on: B6-SJL mice; type: in vivo; remark: listed apart in the source
[14] = target: T1, hKOPr; parameters: host or cells: CHO; details: cited from earlier work
[15] = target: T1, hKOPr; assay: β-arrestin2 recruitment (PathHunter) in U2OS cells expressing β-arrestin2 and hKOPr; type: cell-based; parameters: host or cells: U2OS
[16] = tested on: B6-SJL mice; details: ref White et al. (2015), cited from earlier work
[17] = tested on: male NIH Swiss mice; details: mouse, in vivo; cited from earlier work
[18] = tested on: rats; details: ref Ewald et al., 2017; cited from earlier work
[19] = tested on: B6-SJL mice; parameters: method as in McCurdy et al. (2006); details: 2–4 mg/kg, 52°C, male Swiss mice; ref McCurdy et al. (2006); cited from earlier work
[20] = tested on: B6-SJL mice; details: cited from earlier work
[21] = SalA 2 mg/kg i.p., analogs 1–2 mg/kg i.p.

SMILES	ED50 [1] [mg/kg]	Time of significant antinociceptive effect, tail-withdrawal ([2]; 1 mg/kg i.p.) [min]	Time of significant reduction of pain-related behavioral score ([3]; 1 mg/kg i.p.)	Area under the curve, phase I and phase II pain-related behavior ([3]; 1 mg/kg i.p.)	Area under the curve, phase I and phase II pain-related behavior ([3]; 2 mg/kg i.p.)	Effect on spontaneous locomotor activity [4]	Duration of action, hot-plate ([5]; mouse, in vivo) [min]	Signaling bias in words [6]	Bias factor [6]	Marbles buried vs vehicle ([7]; mouse, in vivo)	Number of head dips vs vehicle ([8]; mouse, in vivo)	Open arm entries vs vehicle ([8]; mouse, in vivo)	Time in open area vs vehicle ([8]; mouse, in vivo)	Drug-seeking in cocaine prime-induced reinstatement [10]	Inhibition of forskolin-induced cAMP accumulation Emax ± SEM [11]	EC50 [12] [nM]	also measured
COC(=O)[C@@H]1C[C@H](OC(C)=O)C(=O)[C@H]2[C@@]1(C)CC[C@H]1C(=O)O[C@H](c3ccoc3Br)C[C@]21C [16-Bromo SalA, 16-Bromo Salvinorin A]	2.06	[…]	[…]	did not show a significant reduction	did not show a significant reduction	did not have an effect	[…]	G-protein biased	7.7 G	did not alter the number of marbles buried	did not have any effect	did not have any effect	did not have any effect	attenuated drug-seeking	98.8 ± 1.84	[…]	Time of significant reduction of pain-related behavioral score ([3]; 2 mg/kg i.p.): […]; Time of sedative effects (decreased latency to fall) ([9]; B6-SJL, mouse, in vivo): […]
C#Cc1occc1[C@@H]1C[C@]2(C)[C@H]3C(=O)[C@@H](OC(C)=O)C[C@@H](C(=O)OC)[C@]3(C)CC[C@H]2C(=O)O1 [16-Ethynyl SalA, 16-Ethynyl Salvinorin A]	1.54	10 to 15	25 to 35 min	not 1 mg/kg	reduced the pain-related behavioral scores	did not have an effect	30	balanced agonist	1.0	did not alter the number of marbles buried	reduced	reduced	reduced	attenuated drug-seeking	101 ± 1.79	–	Emax tail-withdrawal ([1]; normalized to U50,488): 171.0 ± 21.5%; Time of significant antinociceptive effect, tail-withdrawal ([2]; 2 mg/kg i.p.): 5 to 60 min; Effect of nor-BNI pre-treatment on the AUC reduction ([3]; 2 mg/kg i.p., nor-BNI s.c. 24 h prior): nor-BNI significantly reversed the effect; Antinociceptive effect compared at the 30 min time point, hot-plate ([5]; mouse, in vivo): greater antinociceptive effect than both SalA and 16-Bromo SalA; Area under the curve, phase I and II pain-related behavior ([13]; mouse, in vivo): reduced both phases of pain-related behavior; Fold increase in potency at KOPr compared to 16-Bromo SalA [14]: 2 fold; Time of decreased latency to fall ([9]; B6-SJL, mouse, in vivo): 15 and 30; EC50 [15]: 7.35 nM; EC50 ([11]; HitHunter, CHO-hKOPr): 0.011 nM
COC(=O)[C@@H]1C[C@H](OC(=O)CSC#N)C(=O)[C@H]2[C@@]1(C)CC[C@H]1C(=O)O[C@H](c3ccoc3)C[C@]21C [RB-64]	–	–	–	–	–	–	–	–	–	–	–	–	–	–	–	–	Motor deficits, rotarod ([16]; C57BL/6J mice): did not cause any motor deficits
COC(=O)[C@@H]1C[C@H](OC(C)=O)C(=O)[C@H]2[C@@]1(C)CC[C@H]1C(=O)O[C@H](c3ccoc3)C[C@]21C [SalA, Salvinorin A, reference compound]	–	–	–	–	–	–	–	–	–	–	–	–	–	–	–	2.1 ± 0.6	Duration of disrupted climbing behavior [17]: 5 min; Duration of motor incoordination, rotarod ([16]; 3 and 10 mg/kg, female and male C57BL/6J mice): up to 30 min; Duration of action, hot-plate ([5]; 2 mg/kg i.p., 50°C hot-plate): 30 min; Marbles buried vs vehicle ([7]; SalA 2 mg/kg i.p., analogs 1–2 mg/kg i.p., 30 min): increase in the percentage of marble buried; Anxiogenic effects in the elevated plus maze [18]: has anxiogenic effects; Area under the curve, phase I and II pain-related behavior ([13]; 2 mg/kg i.pl.): reduced both phases of pain-related behavior; Number of head dips vs vehicle [8, 21]: reduced; Open arm entries vs vehicle [8, 21]: reduced; Time in open area vs vehicle ([8]; SalA 2 mg/kg i.p., analogs 1–2 mg/kg i.p., 10 min after injection, 5 min test): reduced; Duration of action, hot-plate [19]: 10 min; Duration of action, tail-withdrawal ([20]; 2–4 mg/kg, male Swiss mice, ref McCurdy et al. (2006)): 20 min; Duration of antinociceptive action, tail-withdrawal ([20]; authors' model, ref Paton et al., 2017): 30 min; Time of significant motor incoordination (decreased latency to fall) ([9]; 2 mg/kg i.p., accelerating rotarod 4 to 40 rpm): 15 to 30 min
